Read-outs that look alike come from different tables or passages of the source.
Assays:
Assay type in all cases: cell-based
[1] = target: T1, rGPR39 (Rattus norvegicus, UniProt A0A8J8Y1V6); assay: DMR label-free assay, HEK293s cells transfected with rat GPR39
T1 sequence (A0A8J8Y1V6 1-456): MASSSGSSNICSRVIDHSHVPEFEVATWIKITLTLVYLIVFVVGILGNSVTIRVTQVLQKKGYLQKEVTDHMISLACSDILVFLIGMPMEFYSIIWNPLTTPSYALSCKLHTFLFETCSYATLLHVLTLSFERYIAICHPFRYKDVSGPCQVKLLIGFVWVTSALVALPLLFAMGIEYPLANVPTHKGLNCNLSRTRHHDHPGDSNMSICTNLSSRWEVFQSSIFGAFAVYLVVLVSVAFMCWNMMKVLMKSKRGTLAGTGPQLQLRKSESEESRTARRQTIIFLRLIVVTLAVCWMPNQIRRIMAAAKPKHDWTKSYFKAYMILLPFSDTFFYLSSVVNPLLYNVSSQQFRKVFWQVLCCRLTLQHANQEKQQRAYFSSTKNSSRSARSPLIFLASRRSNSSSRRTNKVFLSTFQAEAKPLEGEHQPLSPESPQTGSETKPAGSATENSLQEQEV
From the text: (§1) Full length human (AF034633), rat (DM091294) and mouse (BC085285) GPR39 (GeneArt–Life Technologies, Carlsbad, CA) were subcloned into the pIRESneo3 vector (Clontech, Mountain View, CA). The resulting expression vectors hGPR39-, rGPR39- and mGPR39-pIRESneo3 were transfected into HEK293s cells (ATCC CRL-1573) using Lipofectamine 2000 (Life Technologies). Individual clones were isolated using flow cytometry with a FACSVantage SE DIVA (Becton Dickinson, Franklin Lakes, NJ) and clones were chosen based on responses to Zn^2+ measured in a cAMP assay (see below). […] HEK293s-derived cell lines were cultured at 37°C, 10% CO2 and 95% humidity in DMEM supplemented with 10% FBS and 600 μg/ml Geneticin (Life Technologies). The mouse pancreas epithelial cell line NIT-1 (ATCC CRL-2055) with endogenous expression of GPR39 was cultured at 37°C, 5% CO2, and 95% humidity in Ham´s F12 (Life Technologies) supplemented with 10% FBS.
(§2) DMR assays were performed using an Epic instrument (Corning Inc., Corning, NY). 12,000 cells per well were cultured for 24 h in 384-well fibronectin-coated Epic biosensor plates (Corning). On the day of experiment, culture medium was removed and replaced with 30 μl buffer A (HBSS, HEPES 20 mM pH7.4, 1% DMSO, 0.01% BSA) using an EL406 (Bio-Tek). Plates were incubated at 26 °C for 1 h inside the Epic to allow for temperature equilibration. A baseline was read for 2 min, and then 15 μl compounds in buffer A were added using a CyBi-Well vario (CyBio) and DMR was detected during 45 min.
(§3) Concentration response data were fitted with a four parameter logistic fit using Eq 1, y=A+((B−A)/1+((C/x)^D))) (1) where A is no activation, B is full activation, C is the EC50 and D is the Hill slope.

[2] = target: T2, mGPR39 (Mus musculus, UniProt Q5U431); assay: DMR label-free assay, HEK293s cells transfected with mouse GPR39; details: for Efficacy at 33 μM: AZ1395 100% reference
T2 construct: Full length human (AF034633), rat (DM091294) and mouse (BC085285) GPR39; expressed in transfected cells; host or cells: HEK293s (ATCC CRL-1573), pIRESneo3 vector, selected clones
T2 sequence (Q5U431 1-456): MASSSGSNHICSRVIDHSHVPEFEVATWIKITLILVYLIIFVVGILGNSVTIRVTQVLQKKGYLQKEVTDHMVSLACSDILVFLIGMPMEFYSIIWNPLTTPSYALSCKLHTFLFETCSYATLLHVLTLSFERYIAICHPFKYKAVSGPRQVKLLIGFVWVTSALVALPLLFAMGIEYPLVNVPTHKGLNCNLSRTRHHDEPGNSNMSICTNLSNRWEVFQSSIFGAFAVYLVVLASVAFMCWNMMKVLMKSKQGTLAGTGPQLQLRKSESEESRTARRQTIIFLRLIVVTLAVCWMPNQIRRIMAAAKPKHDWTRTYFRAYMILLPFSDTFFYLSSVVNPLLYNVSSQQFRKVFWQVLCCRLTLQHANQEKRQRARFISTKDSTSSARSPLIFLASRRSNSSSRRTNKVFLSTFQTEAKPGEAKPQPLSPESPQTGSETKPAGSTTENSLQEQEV
From the text: as §1, §2, §3

[3] = target: T3, GPR39 (Homo sapiens, UniProt O43194); assay: IP1 assay (HTRF), HEK293s-hGPR39 cells; design: Full length human (AF034633), rat (DM091294) and mouse (BC085285) GPR39; expressed in transfected cells; host or cells: HEK293s (ATCC CRL-1573), pIRESneo3 vector, selected clones; details: for Efficacy at 33 μM: AZ1395 100% reference
T3 sequence (O43194 1-453): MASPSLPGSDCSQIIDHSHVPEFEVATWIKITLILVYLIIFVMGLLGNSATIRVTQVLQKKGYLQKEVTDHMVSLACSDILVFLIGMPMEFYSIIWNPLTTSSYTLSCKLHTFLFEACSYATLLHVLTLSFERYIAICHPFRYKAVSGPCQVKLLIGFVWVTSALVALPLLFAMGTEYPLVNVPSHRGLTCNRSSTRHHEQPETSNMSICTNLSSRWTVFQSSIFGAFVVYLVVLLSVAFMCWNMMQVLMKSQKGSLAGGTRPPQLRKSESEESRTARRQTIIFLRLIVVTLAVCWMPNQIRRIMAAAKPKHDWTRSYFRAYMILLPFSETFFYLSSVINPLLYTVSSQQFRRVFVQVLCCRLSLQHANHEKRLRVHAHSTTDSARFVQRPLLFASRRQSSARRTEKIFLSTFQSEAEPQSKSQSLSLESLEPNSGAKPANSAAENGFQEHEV
From the text: as §1
IP1 assays were performed using IP-One Tb kits (CisBio). IP1 production was detected by HTRF as described above. Buffers and reagents were according to manufacturers’ protocols except LiCl concentrations in stimulation buffer which were 50 mM in assays employing HEK293s-hGPR39 cells and 20 mM in assays using NIT-1 cells. For assays using HEK293s-hGPR39 cells, 12,500 cells per well were dispensed into small-volume 384-well plates (Greiner) and IP1 production was stimulated in the presence of compounds for 30 min at 37 °C in a total volume of 20 μl. For assays using NIT-1 cells, 25,000 cells per well were seeded into poly-D-lysine coated 384-well plates (Becton-Dickinson) and cultured in Ham´s F12 medium with 10% FBS. After 48 h, cells were washed with stimulation buffer and IP1 production stimulated in the presence of compounds for 45 min at 37 °C in a total volume of 60 μl.
as §3

[4] = absence (w/o) of Zn^2+, read-out: EC50
[5] = absence (w/o) of Zn^2+, read-out: pEC50 ± SD (converted)
[6] = presence of 5 μM Zn^2+, read-out: EC50
[7] = presence of 5 μM Zn^2+, read-out: pEC50 ± SD (converted)

| Structure (SMILES) | EC50 [1, 4] [nM] | EC50 [1, 5] [nM] | EC50 [1, 6] [nM] | EC50 [1, 7] [nM] | EC50 [2, 4] [nM] | EC50 [2, 5] [nM] | EC50 [2, 7] [nM] | EC50 [3, 5] [nM] | EC50 [3, 7] [nM] | Efficacy at 33 μM ([2]; absence (w/o) of Zn^2+) [%] | EC50 [2, 6] [nM] | Efficacy at 33 μM ([3]; absence (w/o) of Zn^2+) [%] | EC50 [3, 4] [nM] | EC50 [3, 6] [nM] | pEC50 ± SD ([3]; Zn^2+ by itself) | EC50 ([3]; Zn^2+ by itself, read-out: EC50) [nM] |
| --- | --- | --- | --- | --- | --- | --- | --- | --- | --- | --- | --- | --- | --- | --- | --- | --- |
| N#Cc1ccc(OCCn2ccnc2)c(OCCn2ccnc2)c1 [AZ1395, 3,4-bis-(2-imidazol-1-ylethoxy)-benzonitrile] | 5100 | 5130 | 33 | 33.1 | 10000 | 10500 | 166 | 2880 | 19.1 | – | – | – | – | – | – | – |
| Cc1nc2c(C(=O)O)cnn2c(O)c1Cc1ccc(Cl)cc1 [AZ4237, 6-[(4-chlorophenyl)methyl]-7-hydroxy-5-methyl-pyrazolo[1,5-a]pyrimidine-3-carboxylic acid] | > 33000 | – | 150 | 148 | > 33000 | – | 457 | – | 33.9 | 12 | 450 | 66 | > 33000 | – | – | – |
| Cc1nc(-c2nc3c(c(=O)[nH]2)CN(C(=O)c2cccc(Cl)c2F)CC3)cs1 [AZ7914, 6-(3-chloro-2-fluoro-benzoyl)-2-(2-methylthiazol-4-yl)-3,5,7,8-tetrahydropyrido-[4,3-d]pyrimidin-4-one] | 7400 | – | 150 | 148 | > 33000 | – | 316 | – | – | 42 | – | 45 | > 33000 | 74 | – | – |
| [Zn+2] [Zn^2+] | – | – | – | – | – | – | – | – | – | – | – | – | – | – | (4.63 ± 0.08) | 24000 |

From PMC4697807, “Novel Zn^2+ Modulated GPR39 Receptor Agonists Do Not Drive Acute Insulin Secretion in Rodents” (PLoS ONE, 2015)
